Experimental data as given in patent publication US9102582B2, “Method of producing alcohols” (priority 2009, dated 2015).

Legend:
[1] = cited from earlier work
solubility in water = details: same solubility expressed in moles

Row | Compound | solubility in water [1] | solubility in water (molar) (solubility in water)
1 | CCBr [ethyl bromide] | 0.91 grams per 100 ml of water | 0.0835 moles per 1000 ml of water
2 | CCCC(=O)OCC [ethyl butyrate] | 0.68 grams per 100 ml of water | 0.059 moles per 1000 ml of water
3 | CBr [methyl bromide] | 0.09 grams per 100 ml of water | 0.0094 moles per 1000 ml of water
4 | COC(=O)c1ccccc1 [methyl benzoate] | 0.157 grams per 100 ml of water | 0.001532 moles per 1000 ml of water
